The test system of assay [1] is Renca renal cell carcinoma cells. Briefly: IncuCyte live-cell imaging, cell confluence, Renca cells. Format: cell-based. As to conditions: 2 μM Compound 1, ADU-S100, up to 72 hours. On the procedure:
Renca cells were treated with a combination of DMSO or 2 μM Compound 1 alone or in combination with STING agonist ADU-S100 for 24 hours. Treatment with 1 μM staurosporine was used as a positive control for apoptosis induction. To assess cell proliferation, 1000 cells/well were plated in 96-well plates. After 24 h, cells were treated with compounds in 100 μL complete medium. Phase-contrast images (10×) were acquired every 3 h for 24-72 h and cell confluence (%) was calculated using the IncuCyte S3 live-cell analysis system (Sartorius). For monitoring apoptosis, 5 μM of IncuCyte Caspase-3/7 Green Dye (#4440, Sartorius) was added to the medium at the time of treatment. Both phase-contrast and green fluorescent images were captured. Caspase 3/7 induction was calculated by counting green fluorescent objects per mm^2 and dividing it by the percentage of cell confluency.

For assay [2], the system named is 786-O renal cell carcinoma cells. Briefly: qRT-PCR with siRNA knockdown of STING pathway genes, 786-O cells. Format: cell-based, Human. As to conditions: 2 μM, 24 h. The protocol: Quantitative reverse-transcriptase polymerase chain reaction (RT-PCR) assay 786-O cells were grown in RPMI-1640 medium containing 10% fetal bovine serum. Cells were then incubated for 2 days at 37 degrees Celsius, 5% CO2, and 95% humidity. A498 cells were transfected with scrambled siRNA control (siSCR) or siRNA targeting TBK1 (siTBK1), STING (siSTING) or CGAS (siCGAS). After 48 h cells were treated with DMSO or 2 μM of VPS34 inhibitor (Compound 1 or Compound 2) for 24 h. Cells were washed with PBS and RNA was isolated using the PureLink RNA kit (#12183018A, Thermo Fisher Scientific) according to the manufacturer's protocol. Genomic DNA was removed using DNA-binding columns (RNeasy plus kit, #74134, Qiagen) and/or DNase treatment (#12185010, Thermo Fisher Scientific). RNA was quantified using NanoDrop (Thermo Fisher Scientific) and 50 ng/μL RNA was used for cDNA synthesis with SuperScript IV VILO Master Mix (#11756050, Thermo Fisher Scientific). Quantitative RT-PCR (qRT-PCR) was run with diluted cDNA (1:25 or 1:12.5), PowerUp SYBR Green Master Mix (#A25741, Thermo Fisher Scientific), and 200 nM primers (see below) on a CFX Connect RT-PCR system (BioRad). Data was analyzed using the ΔΔCT method. Results are mean±SEM of three independent experiments.
For orientation: Real-time PCR tracks product formation cycle by cycle.

Assay [3] deals with A-498 renal cell carcinoma cells. Briefly: Cytokine secretion assay (MSD) with siRNA knockdown, A-498 cells. The class given is cell-based, human. As to conditions: 24 h; for CCL5 and CXCL10 secretion with siRNA knockdown of CGAS: siCGAS; for CCL5 and CXCL10 secretion with siRNA knockdown of CGAS / increase in CCL5 protein secretion / increase in CXCL10 protein secretion / CCL5 and CXCL10 protein secretion with siRNA knockdown of STING: 2 μM; for CCL5 and CXCL10 secretion with siRNA knockdown of CGAS / CCL5 and CXCL10 protein secretion with siRNA knockdown of STING / CCL5 or CXCL10 protein secretion with siRNA knockdown of TBK1: vs compound alone; for increase in CCL5 protein secretion / increase in CXCL10 protein secretion: siRNA against non-specific controls (siSCR); for CCL5 and CXCL10 protein secretion with siRNA knockdown of STING: siSTING; for CCL5 or CXCL10 protein secretion with siRNA knockdown of TBK1: siTBK1, 2 μM. On the procedure:
A-498 cells were transfected with scrambled siRNA control (siSCR) or siRNA targeting TBK1 (siTBK1), STING (siSTING) or CGAS (siCGAS). After 48 h cells were treated with DMSO or 2 μM of VPS34 inhibitor (Compound 1 or Compound 2) for 24 h. Cell culture medium was centrifuged at 1600 rpm for 10 min at 4° C. and obtained supernatant stored at −80° C. Cytokine levels were quantified using following Meso Scale Discovery (MSD) assays: human R-PLEX RANTES/CCL5 (#F21ZN), U-PLEX CXCL10/IP-10 (#K151UFK). Assays were run on the SECTOR Quickplex Imager and analyzed using Discovery Workbench version 4.0 (MSD).

Assay [4] relates to 786-O renal cell carcinoma cells. Briefly: Western blot, STING pathway proteins with siRNA knockdown, 786-O cells. As to conditions: 24 h; for CGAS level / STING level / p-IRF3 level / p-STAT1 level / p-TKB1 level / p-IRF3 and p-STAT1 levels with siRNA knockdown of CGAS / p-TKB1 level with siRNA knockdown of CGAS / p-IRF3 and p-STAT1 levels with siRNA knockdown of STING / p-TBK1 level with siRNA knockdown of STING: 2 μM; for CGAS level / STING level / p-IRF3 level / p-STAT1 level / p-TKB1 level: vs DMSO alone; for p-IRF3 and p-STAT1 levels with siRNA knockdown of CGAS / p-TKB1 level with siRNA knockdown of CGAS: siCGAS; for p-IRF3 and p-STAT1 levels with siRNA knockdown of CGAS / p-TKB1 level with siRNA knockdown of CGAS / p-IRF3 and p-STAT1 levels with siRNA knockdown of STING / p-TBK1 level with siRNA knockdown of STING: vs compound alone; for p-IRF3 and p-STAT1 levels with siRNA knockdown of STING / p-TBK1 level with siRNA knockdown of STING: siSTING; for STING level with siRNA knockdown of TBK1 / CGAS level with siRNA knockdown of TBK1: siTBK1, 2 μM; for CGAS level with siRNA knockdown of TBK1: vs DMSO. Format: cell-based. On the procedure: 786-O cells were transfected with scrambled siRNA control (siSCR) or siRNA targeting TBK1 (siTBK1), STING (siSTING) or CGAS (siCGAS). After 48 h cells were treated with DMSO or 2 μM of VPS34 inhibitor (Compound 1 or Compound 2) for 24 h. 786-O cells were washed in PBS and lysed in RIPA buffer (50 mM Tris HCl pH=7.4, 150 mM NaCl, 1% Triton X-100, 0.5% Na-deoxycholate, 0.1% SDS) containing protease inhibitor cocktail (#11836170001, Roche), and phosphatase inhibitor (#11836170001, Roche) for 10 min at 4° C. After centrifugation at 15000 rpm for 10 min at 4° C., the supernatant was obtained, and protein concentration was quantified using BCA assay (#23225, Thermo Fisher). Equal amounts were mixed with 0.1 M DTT and LDS Sample Buffer (#84788, Thermo Fisher), heated for 5 min at 90° C. before loading onto 4-12% Bis-Tris gels. Proteins were transferred to nitrocellulose membranes. Membranes were blocked in 5% non-fat dry milk in TBS with 0.05% Tween (TBS-T) for 1 h at RT, washed in TBS-T, and probed with primary antibodies shaking overnight at 4° C. After washing in TBS-T, membranes were incubated with IRDye 800CW goat anti-rabbit or IRDye 680RD donkey anti-mouse IgG (H+L) (#926-32211 and #926-68072, respectively, LI-COR, 1:10,000 dilution) secondary antibody in Intercept blocking buffer (#927-60001, LI-COR) for 1 h at RT. After washing in TBS-T, membranes were imaged using the Odyssey CLx (LI-COR). Band intensities were quantified using Image Studio Lite software version 5.2.5 (LI-COR).
In general terms: A western blot detects proteins with antibodies after separation by electrophoresis.

Consider `Nc1ncnc2c1ncn2[C@@H]1O[C@@H]2COP(=O)([S-])O[C@@H]3[C@H](O)[C@@H](COP([O-])(=S)O[C@H]2[C@H]1O)O[C@H]3n1cnc2c(N)ncnc21.[Na+].[Na+]` (stereo partly drawn) [ADU-S100, reference compound], for which the cell confluence result in assay [1] was “no effect”.
For `C[C@@H]1COCCN1c1cc(N2CCCC[C@@H]2C(F)(F)F)[nH]c(=O)c1` [Compound 1, 4-((R)-3-methylmorpholino)-6-((R)-2-(trifluoromethyl)piperidin-1-yl)pyridin-2(1H)-one], in assay [2], the “increase in mRNA expression of CCL5” value is recorded as over 3 fold, the “increase in mRNA expression of CXCL10” value is on record as about 5 fold, the “increase in mRNA expression of IFNB1” value is reported as over 5 fold and the “increase in mRNA expression of IRF7” value was over 2 fold. For the same compound, in assay [3], the “CCL5 and CXCL10 secretion with siRNA knockdown of CGAS” value is on record as “down to the levels of DMSO controls”; the “increase in CCL5 protein secretion” value is on record as about 2 fold; the “increase in CXCL10 protein secretion” value is on record as about 2 fold; the “CCL5 and CXCL10 protein secretion with siRNA knockdown of STING” value is given as “down to the levels of DMSO controls”. For the same compound, in assay [3], the “CCL5 or CXCL10 protein secretion with siRNA knockdown of TBK1” value is listed as “non-significant changes”. The cell confluence entry in assay [1] was “decreased”. In assay [4], the CGAS level entry is “mild increase”, the STING level result is on record as “increase”, the p-IRF3 level entry is listed as “strong increases” and the p-STAT1 level result is “strong increases”. In assay [4], the p-TKB1 level result is given as “increase”; the “p-IRF3 and p-STAT1 levels with siRNA knockdown of CGAS” value is listed as “complete loss”; the “p-TKB1 level with siRNA knockdown of CGAS” value is reported as “decrease”; the “p-IRF3 and p-STAT1 levels with siRNA knockdown of STING” value is on record as “complete loss”. Moreover, in assay [4], the “p-TBK1 level with siRNA knockdown of STING” value was “decrease”, the “STING level with siRNA knockdown of TBK1” value was “increase” and the “CGAS level with siRNA knockdown of TBK1” value is recorded as “increase”.
Consider `C[C@@H]1COCCN1c1cc(=O)n2c(n1)N(Cc1cncc(Cl)c1)[C@H](C(F)(F)F)CC2` [Compound 2, (S)-9-((5-chloropyridin-3-yl)methyl)-2-((R)-3-methylmorpholino)-8-(trifluoromethyl)-6,7,8,9-tetrahydro-4H-pyrimido[1,2-a]pyrimidin-4-one], for which, in assay [2], the “increase in mRNA expression of CCL5” value was about 4 fold, the “increase in mRNA expression of CXCL10” value is about 5 fold, the “increase in mRNA expression of IFNB1” value is recorded as about 4 fold and the “increase in mRNA expression of IRF7” value is listed as about 3 fold. In assay [3], the “CCL5 and CXCL10 secretion with siRNA knockdown of CGAS” value is “down to the levels of DMSO controls”; the “increase in CCL5 protein secretion” value is listed as about 2 fold; the “increase in CXCL10 protein secretion” value is recorded as about 2 fold; the “CCL5 and CXCL10 protein secretion with siRNA knockdown of STING” value is “down to the levels of DMSO controls”. Moreover, in assay [3], the “CCL5 or CXCL10 protein secretion with siRNA knockdown of TBK1” value is on record as “non-significant changes”. For the same compound, in assay [4], the CGAS level entry was “mild increase”, the STING level entry was “increase”, the p-IRF3 level result was “strong increases” and the p-STAT1 level result is “strong increases”. For the same compound, in assay [4], the p-TKB1 level entry is “increase”; the “p-IRF3 and p-STAT1 levels with siRNA knockdown of CGAS” value is reported as “complete loss”; the “p-TKB1 level with siRNA knockdown of CGAS” value was “decrease”; the “p-IRF3 and p-STAT1 levels with siRNA knockdown of STING” value is reported as “complete loss”. Further, in assay [4], the “p-TBK1 level with siRNA knockdown of STING” value is on record as “decrease”, the “STING level with siRNA knockdown of TBK1” value was “increase” and the “CGAS level with siRNA knockdown of TBK1” value was “increase”.

Values taken from US20250127790A1, “COMBINATION THERAPY USING VPS34 INHIBITORS” (Deciphera Pharmaceuticals, LLC, priority 2021, published 2025).
